Data published in ChEMBL document CHEMBL1201862, “PubChem BioAssay data set” (2004).
Activity calls are given as the source filed them.

Tests used:
[1] = target: Fructose-bisphosphate aldolase (Mycobacterium tuberculosis, UniProt P9WQA3); assay: Fluorescence-based biochemical high throughput dose response assay for inhibitors of the fructose-bisphosphate aldolase (FBA) of M. tuberculosis.; format: functional
cells [2] = format: functional, cell-based
cells [3] = format: functional, cell-based; remark: listed apart in the source
[4] = target: T1, Trace amine-associated receptor 1 (Homo sapiens, UniProt Q96RJ0); assay: Counterscreen for agonists of the human trace amine associated receptor 1 (hTAAR1): Fluorescence-based cell-based high throughput dose response assay to identify hTAAR1 agonist that also desensitize TAAR1 receptor response.; format: functional
T1 sequence (Q96RJ0 whole entry): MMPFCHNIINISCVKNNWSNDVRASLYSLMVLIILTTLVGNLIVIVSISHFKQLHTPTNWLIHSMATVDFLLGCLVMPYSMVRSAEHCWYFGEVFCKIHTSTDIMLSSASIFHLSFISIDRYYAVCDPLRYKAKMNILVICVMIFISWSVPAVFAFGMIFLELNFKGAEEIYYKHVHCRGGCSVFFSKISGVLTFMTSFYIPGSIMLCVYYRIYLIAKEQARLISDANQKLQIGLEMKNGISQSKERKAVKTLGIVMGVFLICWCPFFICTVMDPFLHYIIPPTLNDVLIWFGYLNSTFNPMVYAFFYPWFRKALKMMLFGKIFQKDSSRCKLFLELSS

[5] = target: T1, Trace amine-associated receptor 1; assay: Fluorescence-based cell-based high throughput dose response assay to identify agonists of the human trace amine associated receptor 1 (TAAR1).; format: functional
[6] = viability of PTEN-deleted HCT116 cells – cell-based, HCT116 PTEN knockout, dose response (AID 1047); format: functional;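 also: HCT116 colon tumor cells with PTEN knocked out; cells exposed to compound for 60 hours before readout; potency for loss of cell viability measured by luminescence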
[7] = target: Matrix metalloproteinase-14 (Homo sapiens, UniProt P50281); assay: Dose Response confirmation of uHTS hits for a small molecule inhibitors of MT1-MMP activation in a fluorescence assay set 1.; format: functional
[8] = viability of HCT116 lacking mutant beta-catenin – cell-based, human colon tumor, dose response (AID 1045); format: functional;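 also: HCT116 colon tumor cells with beta catenin knocked out; cells exposed to compound for 60 hours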
[9] = NIH3T3 cell viability loss – ATP luminescence, mouse fibroblasts, counter-screen, dose response (AID 2010); format: functional, cell-based;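 also: cells exposed to compound for about 90 hours before reading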
[10] = Trypanosoma cruzi growth suppression in host cells – NIH3T3 host cells, beta-gal luminescence, confirmation (AID 2044); format: functional, cell-based;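 also: intracellular parasites grown in NIH/3T3 mouse fibroblasts as host cells; luminescent beta-galactosidase reporter signal from transgenic T. cruzi replicating inside host cells; inhibitors lower the luminescence signal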
[11] = inhibition of ADAM10 peptide cleavage – biochemical, FRET peptide substrate, recombinant human ADAM10, selectivity assay for ADAM17 exosite inhibitor project, dose response (AID 743259);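 also: ADAM10 enzyme cleaving a FRET peptide substrate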
Albumin = Albumin (Bos taurus, UniProt P02769); assay: Counterscreen for inhibitors of T-cell receptor (TCR)-CD3 interaction: Fluorescence-based biochemical high throughput dose response assay to identify inhibitors of T-cell receptor (TCR)-CD3 interaction using a TAMRA-labeled BSA probe.; format: functional
[12] = target: Disintegrin and metalloproteinase domain-containing protein 17 (Homo sapiens, UniProt P78536); assay: exosite inhibitors of ADAM17, dose response, biochemical (AID 743260)
[13] = blockers of HIV-1 envelope-mediated cell-cell fusion – cherry-pick, dose response (AID 652057); format: functional, cell-based
[14] = off-target signal loss in HeLa-CEM21 co-culture – HeLa F-luc CTL cells, cherry-picked, counter-screen for HIV-1 Env fusion inhibitor project, dose response (AID 652040); format: functional, cell-based;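 also: potency for signal decrease marking cytotoxic or nonspecific inhibition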
[15] = viability loss in CEM21 cells – cell-based, CellTiter-Glo luminescence, cherry-picked, cytotoxicity control for viral fusion inhibitor project, dose response (AID 652042); format: functional;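 also: potency for signal decrease meaning cytotoxicity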
[16] = HIV-1 AD8 envelope cell-cell fusion blockers – cherry-pick, dose response (AID 652062); format: functional, cell-based;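 also: luciferase signal from cell-cell fusion driven by HIV-1 clade B AD8 Env; potency is for inhibitors of fusion seen as a drop in luminescence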
Leucine aminopeptidase = target: T2, Leucine aminopeptidase (Plasmodium falciparum 3D7, UniProt Q8IL11); assay: P. falciparum M17LAP inhibitors, primary screen, biochemical, fluorogenic H-Leu-NHMec substrate, 1536-well (AID 1619); format: functional
T2 sequence (Q8IL11 whole entry): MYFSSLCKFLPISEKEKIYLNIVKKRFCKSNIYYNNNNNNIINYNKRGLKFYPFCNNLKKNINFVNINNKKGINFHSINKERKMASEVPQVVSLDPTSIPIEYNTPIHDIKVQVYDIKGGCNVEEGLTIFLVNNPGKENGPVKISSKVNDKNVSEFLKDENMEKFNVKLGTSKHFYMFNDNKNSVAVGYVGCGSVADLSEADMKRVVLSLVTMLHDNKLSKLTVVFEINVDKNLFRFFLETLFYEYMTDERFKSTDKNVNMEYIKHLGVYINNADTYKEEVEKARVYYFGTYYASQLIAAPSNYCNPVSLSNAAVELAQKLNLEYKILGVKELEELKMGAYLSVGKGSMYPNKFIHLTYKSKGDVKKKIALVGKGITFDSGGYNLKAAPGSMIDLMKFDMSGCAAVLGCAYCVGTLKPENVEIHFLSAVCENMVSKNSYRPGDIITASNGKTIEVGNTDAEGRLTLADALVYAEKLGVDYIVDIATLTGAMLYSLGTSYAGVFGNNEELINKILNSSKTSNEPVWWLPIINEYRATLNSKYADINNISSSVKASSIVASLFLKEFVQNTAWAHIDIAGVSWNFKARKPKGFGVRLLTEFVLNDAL

Chain of Disintegrin and metalloproteinase domain-containing protein 17 (P78536 whole entry, the tested form may be a part): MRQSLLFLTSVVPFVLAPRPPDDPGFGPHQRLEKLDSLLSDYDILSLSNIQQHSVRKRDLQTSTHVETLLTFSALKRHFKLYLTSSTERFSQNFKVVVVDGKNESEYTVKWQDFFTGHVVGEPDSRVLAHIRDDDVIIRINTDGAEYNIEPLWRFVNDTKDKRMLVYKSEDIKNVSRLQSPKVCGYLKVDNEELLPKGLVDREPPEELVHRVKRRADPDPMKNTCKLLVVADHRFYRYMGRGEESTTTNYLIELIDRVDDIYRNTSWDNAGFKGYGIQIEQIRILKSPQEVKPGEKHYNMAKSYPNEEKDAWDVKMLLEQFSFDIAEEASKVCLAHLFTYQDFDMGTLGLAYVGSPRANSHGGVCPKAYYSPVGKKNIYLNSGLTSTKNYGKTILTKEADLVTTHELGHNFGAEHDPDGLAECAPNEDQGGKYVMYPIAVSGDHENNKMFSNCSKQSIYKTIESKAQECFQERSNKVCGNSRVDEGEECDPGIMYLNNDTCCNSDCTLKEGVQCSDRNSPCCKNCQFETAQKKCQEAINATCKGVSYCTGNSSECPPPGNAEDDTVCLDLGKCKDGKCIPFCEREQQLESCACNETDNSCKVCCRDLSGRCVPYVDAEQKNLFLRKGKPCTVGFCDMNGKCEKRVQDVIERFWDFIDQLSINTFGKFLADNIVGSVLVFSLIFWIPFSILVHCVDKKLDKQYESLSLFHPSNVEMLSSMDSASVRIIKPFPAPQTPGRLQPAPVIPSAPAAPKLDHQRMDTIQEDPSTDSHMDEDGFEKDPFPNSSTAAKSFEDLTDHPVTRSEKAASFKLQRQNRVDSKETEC
Chain of Fructose-bisphosphate aldolase (P9WQA3 whole entry): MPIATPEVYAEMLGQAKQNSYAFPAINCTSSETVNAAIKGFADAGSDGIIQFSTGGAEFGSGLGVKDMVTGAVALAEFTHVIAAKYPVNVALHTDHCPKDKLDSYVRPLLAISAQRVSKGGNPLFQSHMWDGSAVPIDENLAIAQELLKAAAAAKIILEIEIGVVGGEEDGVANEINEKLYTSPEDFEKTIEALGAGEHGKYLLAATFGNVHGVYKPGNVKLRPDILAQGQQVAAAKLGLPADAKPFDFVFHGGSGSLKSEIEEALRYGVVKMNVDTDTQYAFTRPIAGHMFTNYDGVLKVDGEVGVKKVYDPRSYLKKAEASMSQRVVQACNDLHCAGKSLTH
Chain of Albumin (P02769 whole entry, the tested form may be a part): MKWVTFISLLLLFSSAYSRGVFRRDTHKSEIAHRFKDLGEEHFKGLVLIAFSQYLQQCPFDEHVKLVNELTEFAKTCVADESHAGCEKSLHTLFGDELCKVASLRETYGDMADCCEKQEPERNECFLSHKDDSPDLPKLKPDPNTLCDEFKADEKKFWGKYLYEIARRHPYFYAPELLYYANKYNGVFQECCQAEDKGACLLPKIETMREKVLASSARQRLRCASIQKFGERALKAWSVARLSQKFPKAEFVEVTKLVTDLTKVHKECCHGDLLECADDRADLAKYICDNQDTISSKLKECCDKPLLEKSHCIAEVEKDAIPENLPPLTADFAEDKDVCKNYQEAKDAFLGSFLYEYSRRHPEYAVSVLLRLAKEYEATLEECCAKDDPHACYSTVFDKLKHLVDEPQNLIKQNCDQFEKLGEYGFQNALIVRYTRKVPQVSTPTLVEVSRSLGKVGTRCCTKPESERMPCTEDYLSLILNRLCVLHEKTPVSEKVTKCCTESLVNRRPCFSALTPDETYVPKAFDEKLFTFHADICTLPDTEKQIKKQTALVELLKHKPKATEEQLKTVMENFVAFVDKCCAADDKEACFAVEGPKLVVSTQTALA

Cc1cc(C)c2oc(-c3cccc(N)c3)nc2c1
IC50 [1]: 0.518 µM (active)

Cc1ccccc1-n1c(=O)cc(N2CCc3ccccc3C2)[nH]c1=O
EC50 (cells [2]): > 29.9 µM (inactive) | IC50 (cells [3]): > 29.9 µM (inactive) | IC50 [4]: 7.07 µM (active) | EC50 [5]: 2.59 µM (active)

Nc1nc(-c2ccc(Cl)cc2)c(N=Nc2ccc(S(=O)(=O)N3CCOCC3)cc2)s1
EC50 [6]: 16.5 µM (active) | IC50 [7]: 27.7 µM (inactive) | EC50 [8]: 17.4 µM (active) | EC50 [9]: > 60 µM (inconclusive) | EC50 [10]: 1.96 µM (active)

COc1ccccc1N(C)S(=O)(=O)c1ccc(C(=O)NNC(=O)c2ccccc2O)cc1
IC50 [11]: > 69.5 µM (inactive) | IC50 (Albumin): > 94.1 µM (inactive) | IC50 [12]: > 69.5 µM (inactive)

COc1ccc(COC(=O)C2=C(C)NC(=O)NC2c2ccc(OC)cc2)cc1 (configuration not stated)
AC50 [13]: 21.6 µM (active) | AC50 [14]: 47.3 µM (active) | AC50 [15]: 60.3 µM (active) | AC50 [16]: 33.4 µM (active)

CC1=C(C)CC(C(=O)NCCc2ccccc2)C(C(=O)O)C1 (configuration not stated)
EC50 (cells [2]): > 29.9 µM (inactive) | IC50 (cells [3]): > 29.9 µM (inactive) | IC50 [4]: 7.2 µM (active) | EC50 [5]: 1.4 µM (active) | IC50 (Leucine aminopeptidase): 46 µM (active)
